Experiments:
human calcium receptor = target: T1, human calcium receptor (Homo sapiens, UniProt P41180); assay: Evaluation of antagonistic action on calcium receptor using reporter gene (luciferase); format: cell-based; settings: transformed rat adrenal derived cells, 5 mM calcium chloride, culture 4 hrs, luciferase activity; read-out: Reporter gene assay (IC50, concentration showing 50% inhibitory rate)
T1 construct: expressed in transfected cells; host or cells: cell strain derived from rat adrenal, co-transformed with luciferase cDNA
T1 sequence (P41180 20-1078): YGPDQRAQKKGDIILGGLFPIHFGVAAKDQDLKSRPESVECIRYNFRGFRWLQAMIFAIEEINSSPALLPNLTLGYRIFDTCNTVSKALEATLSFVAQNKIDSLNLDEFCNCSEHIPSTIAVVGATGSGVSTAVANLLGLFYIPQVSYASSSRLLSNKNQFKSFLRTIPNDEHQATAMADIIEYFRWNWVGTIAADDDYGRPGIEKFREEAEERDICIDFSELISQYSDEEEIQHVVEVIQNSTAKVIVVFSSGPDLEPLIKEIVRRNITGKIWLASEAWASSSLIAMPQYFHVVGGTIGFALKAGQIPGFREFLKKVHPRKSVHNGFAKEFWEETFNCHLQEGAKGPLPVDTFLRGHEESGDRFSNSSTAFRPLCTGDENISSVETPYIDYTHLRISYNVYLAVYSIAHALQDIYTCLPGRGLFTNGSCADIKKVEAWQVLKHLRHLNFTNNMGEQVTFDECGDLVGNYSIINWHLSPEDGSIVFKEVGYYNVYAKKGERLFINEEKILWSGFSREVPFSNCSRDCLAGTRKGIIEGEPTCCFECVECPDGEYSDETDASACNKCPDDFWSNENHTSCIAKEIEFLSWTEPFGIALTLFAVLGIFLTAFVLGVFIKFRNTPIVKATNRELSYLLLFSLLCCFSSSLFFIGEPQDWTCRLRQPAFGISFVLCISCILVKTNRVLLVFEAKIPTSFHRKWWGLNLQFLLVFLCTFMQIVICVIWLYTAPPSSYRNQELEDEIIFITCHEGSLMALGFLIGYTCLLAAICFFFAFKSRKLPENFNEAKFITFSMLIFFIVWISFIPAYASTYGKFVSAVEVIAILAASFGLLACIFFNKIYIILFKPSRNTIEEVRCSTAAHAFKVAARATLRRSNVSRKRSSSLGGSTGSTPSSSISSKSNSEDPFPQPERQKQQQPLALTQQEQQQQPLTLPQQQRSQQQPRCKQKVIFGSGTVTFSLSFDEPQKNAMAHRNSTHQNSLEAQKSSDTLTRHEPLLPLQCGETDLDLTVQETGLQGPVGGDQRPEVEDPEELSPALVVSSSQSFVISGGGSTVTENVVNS
Summary of the method: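 Rat adrenal-derived cells transfected with luciferase and human calcium receptor cDNA, in F12 with 0.5% dialyzed horse serum and 0.25% dialyzed fetal bovine serum. Luciferase luminescence gave % inhibition vs control and blank; IC50 at 50% inhibition.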

PTH secretion [1] = assay: PTH secretion action, Experimental Example 2 (serum PTH after oral administration); format: in vivo, male SD rats; settings: test compound administration group, 1 mg/5 ml/kg oral, rats fasted 20 hr
Procedure: The test compound was orally administered to 5 to 9-week-old male SD rats (Charles River Japan, Inc.) fasted for 20 hr, using a solvent (0.5% methyl cellulose solution) at a dose of 1 mg/5 ml/kg. A solvent alone was orally administered to the control group at a dose of 5 ml/kg. The blood was drawn from the tail vein immediately before and, 15 min, 30 min, 60 min and 120 min after the administration of the test compound, and serum was obtained. The serum PTH concentration was measured using rat PTH ELISA kit (Amersham Biosciences).

PTH secretion [2] = assay: Concomitant administration of test compound and estrogen: blood PTH with time; format: in vivo, ovariectomized rats; settings: for PTH (1–84) concentration 0.25 hr: day 16, 0.25 hr; for PTH (1–84) concentration 0.5 hr: day 16, 0.5 hr; for PTH (1–84) concentration 1 hr: day 16, 1 hr; for PTH (1–84) concentration 2 hr: day 16, 2 hr; for PTH (1–84) concentration 4 hr: day 16, 4 hr; for PTH (1–84) concentration 0 hr: day 16, immediately before oral administration
Procedure: The 13-week-old ovariectomized rats were divided into 4 groups of a control group (Group A), an estrogen administration group (Group B), a test compound administration group (Group C), and a test compound and estrogen concomitant administration group (Group D). One sham control group (E group) subjected to a sham surgery was also established. Estradiol was dissolved in 5% benzyl alcohol-corn oil and subcutaneously administered to an estrogen administration groups (Group B and Group D) at the dose of 10 μg/kg. 5% Benzyl alcohol-corn oil was subcutaneously administered to groups (Group A and Group C) free from administration of estrogen. The compound of Example 1-1 was suspended in 0.5% methyl cellulose solution and orally administered to groups (Group C and Group D) to be administered with the test compound at the dose of 3 mg/kg. As regards the groups (Group A and Group B) free from administration of the test compound, 0.5% methyl cellulose solution was orally administered.
In addition, blood was drawn with time for the measurement of blood PTH at day 16 of administration. The blood was drawn in each group from the tail vein immediately before oral administration and 0.25, 0.5, 1, 2 and 4 hr later, and serum was obtained. For serum PTH measurement, a commercially available ELISA kit (“rat intact PTH ELISA kit”, Immutopics) was used.

[3] = Group D concomitant with estradiol
[4] = exclusive administration (Group B estradiol; Group C Example 1-1 3 mg/kg oral)

## Cc1ccc(CC(C)(C)NC[C@@H](O)CO[C@H](C)c2ccccc2-c2ccc(C(=O)O)c(C)c2)cc1F [Example 1-1, 2′-[(1R)-[(2R)-3-[[1-(3-Fluoro-4-methylphenyl)-2-methylpropan-2-yl]amino]-2-hydroxypropoxy]ethyl]-3-methylbiphenyl-4-carboxylic acid]
Human calcium receptor
  IC50: 24 nM
PTH secretion [1]; 15 min
  Serum PTH concentration 15 min later: 43.9 ± 2.0 pg/mL
PTH secretion [1]; 30 min
  Serum PTH concentration 30 min later: 25.0 ± 3.2 pg/mL
PTH secretion [1]; 60 min
  Serum PTH concentration 60 min later: 17.9 ± 2.0 pg/mL
PTH secretion [1]; 120 min
  Serum PTH concentration 120 min later: 14.8 ± 1.6 pg/mL
PTH secretion [2]; Table 66, Example 1-1 and estrogen concomitant administration
  Change of blood PTH with time: a transitional increase was observed
PTH secretion [2]; Table 66, exclusive administration
  Change of blood PTH with time: a transitional increase was observed
PTH secretion [2]; [3]
  PTH (1–84) concentration 0.25 hr: 407.35 ± 134.53 pg/mL
  PTH (1–84) concentration 0.5 hr: 418.87 ± 154.78 pg/mL
  PTH (1–84) concentration 1 hr: 279.76 ± 117.98 pg/mL
  PTH (1–84) concentration 2 hr: 115.50 ± 74.98 pg/mL
  PTH (1–84) concentration 4 hr: 58.84 ± 16.75 pg/mL
PTH secretion [2]; [4]
  PTH (1–84) concentration 0.25 hr: 371.21 ± 77.74 pg/mL
  PTH (1–84) concentration 0.5 hr: 370.78 ± 98.28 pg/mL
  PTH (1–84) concentration 1 hr: 177.39 ± 96.06 pg/mL
  PTH (1–84) concentration 2 hr: 117.51 ± 123.12 pg/mL
  PTH (1–84) concentration 4 hr: 56.50 ± 12.29 pg/mL
PTH secretion [2]; Group D: Example 1-1 3 mg/kg oral and estradiol 10 μg/kg s.c. concomitant
  PTH (1–84) concentration 0 hr: 27.12 ± 4.58 pg/mL
PTH secretion [2]; exclusive administration (Group B estradiol 10 μg/kg s.c.; Group C Example 1-1 3 mg/kg oral)
  PTH (1–84) concentration 0 hr: 31.19 ± 16.28 pg/mL

From US7304174B2, “CaSR antagonist” (Japan Tobacco Inc., priority 2003, dated 2007)
